Calls of active or inactive are those of the source. No cut-off for these calls is given here.
Columns and labels:
[1] = Toxicity in BALB/c mouse assessed as morphological changes in myeloid lineage cells in bone marrow at 10 mg/kg, po qd for 3 days; assay type: organism-based; conditions: in vivo, 72 h, time 3 day
[2] = biological target: DNA-dependent protein kinase catalytic subunit (Homo sapiens, UniProt P78527); assay: Inhibition of DNA-PK in human Jurkat cell lysates at 0.3 uM in presence of biotinylated ADP by KiNativ profiling based mass spectrometry; assay type: subcellular
[3] = Toxicity in NOD-SCID mouse xenografted with human Granta-519 cells assessed as late stage erythroblasts in bone marrow at 10 mg/kg, po qd for 3 days and measured at 4 days after treatment cessation by flow cytometry; assay type: organism-based; conditions: in vivo, 72 h, time 3 day
[4] = Toxicity in NOD-SCID mouse xenografted with human Granta-519 cells assessed as late stage erythroblasts in bone marrow at 10 mg/kg, po qd for 3 days and measured at 2 days after treatment cessation by flow cytometry; assay type: organism-based; conditions: in vivo, 72 h, time 3 day
[5] = Clearance in dog liver microsomes at 1 uM in presence of NADPH by ESI/LC-MS/MS analysis; assay type: ADME, Canis lupus familiaris, Microsome; conditions: read-out: CLH
[6] = biological target: T1, Serine/threonine-protein kinase ATR (Homo sapiens, UniProt Q13535); assay: Inhibition of ATR in human HeLa S3 cells assessed as decrease in CHK1 phosphorylation at Ser345 residue pretreated for 20 mins followed by gemcitabine stimulation for 3.5 to 4 hrs by AlphaScreen SurFire assay; assay type: cell-based
T1 sequence (Q13535 whole entry): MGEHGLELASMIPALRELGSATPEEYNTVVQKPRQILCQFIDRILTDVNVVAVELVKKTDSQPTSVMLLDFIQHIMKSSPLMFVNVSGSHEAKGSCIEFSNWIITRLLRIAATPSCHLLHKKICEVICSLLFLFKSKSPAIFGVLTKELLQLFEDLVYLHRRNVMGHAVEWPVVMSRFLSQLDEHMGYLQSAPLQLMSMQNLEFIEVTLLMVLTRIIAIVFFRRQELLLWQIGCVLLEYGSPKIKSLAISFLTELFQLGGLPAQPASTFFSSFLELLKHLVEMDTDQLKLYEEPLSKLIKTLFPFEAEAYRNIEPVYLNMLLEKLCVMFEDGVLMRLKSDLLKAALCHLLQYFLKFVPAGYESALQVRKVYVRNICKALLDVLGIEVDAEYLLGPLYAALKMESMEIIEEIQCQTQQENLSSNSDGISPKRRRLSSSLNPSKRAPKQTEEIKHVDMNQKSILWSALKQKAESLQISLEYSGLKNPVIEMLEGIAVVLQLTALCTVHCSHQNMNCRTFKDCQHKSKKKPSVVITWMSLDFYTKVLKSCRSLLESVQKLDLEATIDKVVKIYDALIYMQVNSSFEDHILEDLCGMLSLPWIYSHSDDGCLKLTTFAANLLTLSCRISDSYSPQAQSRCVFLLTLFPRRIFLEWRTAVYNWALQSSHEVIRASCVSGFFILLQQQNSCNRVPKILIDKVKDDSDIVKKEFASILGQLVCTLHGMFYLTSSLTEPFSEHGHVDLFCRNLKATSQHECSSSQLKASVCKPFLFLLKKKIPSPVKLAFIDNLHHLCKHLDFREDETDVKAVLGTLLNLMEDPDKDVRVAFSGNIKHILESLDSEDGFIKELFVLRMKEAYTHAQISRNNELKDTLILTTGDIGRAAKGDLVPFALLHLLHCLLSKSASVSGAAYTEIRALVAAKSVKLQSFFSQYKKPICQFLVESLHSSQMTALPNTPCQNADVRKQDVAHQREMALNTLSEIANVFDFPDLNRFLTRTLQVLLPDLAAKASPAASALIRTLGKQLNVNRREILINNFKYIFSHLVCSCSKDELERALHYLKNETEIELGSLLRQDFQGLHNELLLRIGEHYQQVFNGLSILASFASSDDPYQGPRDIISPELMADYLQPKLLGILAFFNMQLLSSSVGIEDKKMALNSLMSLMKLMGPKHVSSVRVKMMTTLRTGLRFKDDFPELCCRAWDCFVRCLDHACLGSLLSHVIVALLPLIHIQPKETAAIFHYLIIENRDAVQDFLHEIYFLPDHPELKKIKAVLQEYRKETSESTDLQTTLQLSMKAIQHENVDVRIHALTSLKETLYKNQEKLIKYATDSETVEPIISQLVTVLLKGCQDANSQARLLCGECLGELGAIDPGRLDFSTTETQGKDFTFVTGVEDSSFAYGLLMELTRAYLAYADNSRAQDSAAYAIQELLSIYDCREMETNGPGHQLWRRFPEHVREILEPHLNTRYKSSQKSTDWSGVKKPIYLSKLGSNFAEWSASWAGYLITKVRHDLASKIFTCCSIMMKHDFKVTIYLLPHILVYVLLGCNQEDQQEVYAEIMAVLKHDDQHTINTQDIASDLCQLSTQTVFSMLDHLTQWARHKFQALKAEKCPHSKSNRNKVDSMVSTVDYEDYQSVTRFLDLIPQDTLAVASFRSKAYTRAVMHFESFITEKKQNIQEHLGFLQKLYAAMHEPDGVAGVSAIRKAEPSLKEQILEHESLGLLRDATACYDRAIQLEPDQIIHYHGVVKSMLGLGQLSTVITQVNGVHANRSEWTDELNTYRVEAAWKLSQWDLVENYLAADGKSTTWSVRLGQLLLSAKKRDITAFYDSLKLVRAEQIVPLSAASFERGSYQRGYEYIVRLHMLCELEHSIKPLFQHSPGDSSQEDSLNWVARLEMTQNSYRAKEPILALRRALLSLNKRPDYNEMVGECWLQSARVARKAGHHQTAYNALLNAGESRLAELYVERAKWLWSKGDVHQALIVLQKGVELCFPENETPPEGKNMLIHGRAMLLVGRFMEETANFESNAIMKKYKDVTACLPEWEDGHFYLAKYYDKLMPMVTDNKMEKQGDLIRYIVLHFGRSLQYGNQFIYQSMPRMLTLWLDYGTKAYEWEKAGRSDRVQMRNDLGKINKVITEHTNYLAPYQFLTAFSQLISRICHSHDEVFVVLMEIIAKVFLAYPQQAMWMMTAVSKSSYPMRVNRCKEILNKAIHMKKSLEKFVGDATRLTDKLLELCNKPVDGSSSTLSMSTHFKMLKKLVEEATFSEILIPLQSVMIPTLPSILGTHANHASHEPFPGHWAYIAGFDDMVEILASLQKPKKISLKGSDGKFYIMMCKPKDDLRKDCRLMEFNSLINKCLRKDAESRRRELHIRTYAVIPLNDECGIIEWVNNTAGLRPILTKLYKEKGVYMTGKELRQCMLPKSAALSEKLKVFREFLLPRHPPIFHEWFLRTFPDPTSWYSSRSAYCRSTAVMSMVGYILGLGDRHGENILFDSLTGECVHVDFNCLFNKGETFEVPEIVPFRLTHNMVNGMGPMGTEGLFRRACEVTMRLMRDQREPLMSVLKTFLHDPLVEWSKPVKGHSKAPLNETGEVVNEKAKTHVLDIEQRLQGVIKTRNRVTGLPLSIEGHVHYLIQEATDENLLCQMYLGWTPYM

[7] = Toxicity in NOD-SCID mouse xenografted with human Granta-519 cells assessed as reduction in late stage erythroblasts at 10 mg/kg, po qd for 1 day by flow cytometry; assay type: organism-based; conditions: in vivo, 24 h
[8] = Toxicity in BALB/c mouse assessed as late stage erythroblasts in bone marrow at 10 mg/kg, po qd for 3 days and measured at 1 day after treatment discontinuation by flow cytometry; assay type: organism-based; conditions: in vivo, 72 h, time 3 day
[9] = Toxicity in NOD-SCID mouse xenografted with human Granta-519 cells assessed as circulating reticulocytes at 30 mg/kg, po qd for 3 days and 4 days off treatment and measured on day 14; assay type: organism-based; conditions: in vivo, 72 h, time 3 day
[10] = Clearance in cynomolgus monkey at 0.5 mg/kg, iv formulated as a solution in 10% PG:18% PEG400 in water or 5% NMP:95% (10% VitE TPGS in water) measured for 24 hrs by reverse phase liquid chromatography coupled to mass spectrometry; assay type: ADME, organism-based, Macaca fascicularis; conditions: in vivo
[11] = Toxicity in NOD-SCID mouse xenografted with human Granta-519 cells assessed as early stage erythroblasts at 30 mg/kg, po qd for 3 days and measured at 2 days after treatment discontinuation by flow cytometry; assay type: organism-based; conditions: in vivo, 72 h, time 3 day
[12] = biological target: T1, Serine/threonine-protein kinase ATR; assay: Inhibition of ATR in gemcitabine-stimulated human LoVo cells assessed as decrease in CHK1 phosphorylation at Ser345 residue; assay type: cell-based; conditions: lovo
[13] = Clearance in human hepatocytes at 1 uM measured per million cells by ESI/LC-MS/MS analysis; assay type: ADME, cell-based, Hepatocyte; conditions: read-out: CLH
[14] = Toxicity in BALB/c mouse assessed as early stage erythroblasts in bone marrow at 10 mg/kg, po qd for 3 days and measured at 1 day after treatment discontinuation by flow cytometry; assay type: organism-based; conditions: in vivo, 72 h, time 3 day
[15] = Toxicity in NOD-SCID mouse xenografted with human Granta-519 cells assessed as late stage erythroblasts at 30 mg/kg, po qd for 3 days and measured at 2 days after treatment discontinuation by flow cytometry; assay type: organism-based; conditions: in vivo, 72 h, time 3 day
Granta-519 [16] = assay: Antitumor activity against human Granta-519 cells xenografted in NOD-SCID mouse assessed as reduction in tumor volume at 5 mg/kg, po qd for 3 days co-administered with PARP inhibitor, niraparib; assay type: functional, organism-based; conditions: time 3.0 day
[17] = Toxicity in NOD-SCID mouse xenografted with human Granta-519 cells assessed as changes in body weight at 30 mg/kg, po qd for 3 days and measured at 4 days after drug treatment cessation; assay type: organism-based; conditions: in vivo, 72 h, time 3 day
[18] = Toxicity in BALB/c mouse assessed as late stage erythroblasts in bone marrow at 10 mg/kg, po qd for 3 days and measured at 4 days after treatment discontinuation by flow cytometry; assay type: organism-based; conditions: in vivo, 72 h, time 3 day
[19] = Toxicity in BALB/c mouse assessed as depletion of erythroid lineage by measuring increase in myeloid to erythroid ratio in bone marrow at 10 mg/kg, po qd for 3 days; assay type: organism-based; conditions: in vivo, 72 h, time 3 day
[20] = Clearance in rat liver microsomes at 1 uM in presence of NADPH by ESI/LC-MS/MS analysis; assay type: ADME, Microsome; conditions: read-out: CLH
[21] = Toxicity in BALB/c mouse assessed as late stage erythroblasts in bone marrow at 10 mg/kg, po qd for 3 days and 4 days off intermittent dosing for 4 cycles by flow cytometry; assay type: organism-based; conditions: in vivo, 672 h, time 28 day
Granta-519 [22] = assay: Antitumor activity against human Granta-519 cells xenografted in NOD-SCID mouse assessed as decrease in tumor volume at 25 mg/kg, po qd for 5 days and measured at 2 days after drug treatment cessation; assay type: functional, organism-based; conditions: time 5.0 day
[23] = Clearance in mouse hepatocytes at 1 uM measured per million cells by ESI/LC-MS/MS analysis; assay type: ADME, cell-based, Hepatocyte; conditions: read-out: CLH
Granta-519 [24] = assay: Antitumor activity against human Granta-519 cells xenografted in NOD-SCID mouse assessed as decrease in tumor volume at 10 mg/kg, po qd for 7 days; assay type: functional, organism-based; conditions: time 7.0 day
[25] = Toxicity in NOD-SCID mouse xenografted with human Granta-519 cells assessed as red blood cells count at 5 mg/kg, po qd for 3 days and 4 days off intermittent dosing for 3 cycles co-administered with PARP inhibitor, niraparib and measured on day 21; assay type: organism-based; conditions: in vivo, 504 h, time 21 day
LoVo = assay: Cytotoxicity against human LoVo cells assessed as reduction in cell viability incubated for 5 days by CellTiter-Glo assay; assay type: functional, cell-based; conditions: 120 h
[26] = Toxicity in NOD-SCID mouse xenografted with human Granta-519 cells assessed as reticulocytes count at 5 mg/kg, po qd for 3 days and 4 days off intermittent dosing for 3 cycles co-administered with PARP inhibitor, niraparib and measured on day 21; assay type: organism-based; conditions: in vivo, 504 h, time 21 day
[27] = Toxicity in BALB/c mouse assessed as reticulocytes in bone marrow at 10 mg/kg, po qd for 3 days and measured at 4 days after treatment discontinuation; assay type: organism-based; conditions: in vivo, 72 h, time 3 day
[28] = Toxicity in BALB/c mouse assessed as reduction in total viable cell counts in femur at 10 mg/kg, po qd for 3 days; assay type: organism-based; conditions: in vivo, 72 h, time 3 day
[29] = Toxicity in NOD-SCID mouse xenografted with human Granta-519 cells assessed as changes in body weight at 10 mg/kg, po qd for 7 days; assay type: organism-based; conditions: in vivo, 168 h, time 7 day
[30] = biological target: Serine/threonine-protein kinase mTOR (Homo sapiens, UniProt P42345); assay: Inhibition of mTOR in human Jurkat cell lysates at 0.03 to 0.3 uM in presence of biotinylated ADP by KiNativ profiling based mass spectrometry; assay type: subcellular; conditions: dose 0.03-0.3 µM
[31] = Toxicity in NOD-SCID mouse xenografted with human Granta-519 cells assessed as reduction in early stage erythroblasts in bone marrow at 10 mg/kg, po qd for 1 day co-administered with PARP inhibitor, niraparib by flow cytometry; assay type: organism-based; conditions: in vivo, 24 h
[32] = Oral bioavailability in Sprague-Dawley rat at 20 mg/kg formulated as suspension in 0.5% methocel and 0.02% SLS measured for 24 hrs by reverse phase liquid chromatography coupled to mass spectrometry; assay type: ADME, organism-based; conditions: in vivo

Q: For `C[C@@H]1COCCN1c1cc([C@]2(O)C[C@H]3CC[C@@H](C2)O3)c2cnn(-c3cc[nH]n3)c2n1` [CAMONSERTIB], which Activity [1] is on record?
A: Non-Toxic

Q: What about the inhibition [2] of the same compound?
A: Active

Q: What about the Activity [3] of the same compound?
A: Non-Toxic

Q: What about the Activity [4] of the same compound?
A: Non-Toxic

Q: And the microsomal CLint at 1 µM [5]?
A: < 11.6 µL/min/mg

Q: And the IC50 [6]?
A: 0.9 nM

Q: What about the Activity [7] of the same compound?
A: Toxic

Q: And the Activity [8]?
A: Non-Toxic

Q: And the Activity [9]?
A: Non-Toxic

Q: And the clearance [10]?
A: 14 mL/min/kg

Q: What about the Activity [11] of the same compound?
A: Non-Toxic

Q: What about the IC50 [12] of the same compound?
A: 0.33 nM

Q: And the hepatocyte CLint at 1 µM [13]?
A: 1.5 µL/min/1e6 cells

Q: What about the Activity [14] of the same compound?
A: Non-Toxic

Q: And the Activity [15]?
A: Non-Toxic

Q: And the Activity (Granta-519 [16])?
A: Active

Q: And the Activity [17]?
A: Non-Toxic

Q: And the Activity [18]?
A: Non-Toxic

Q: And the Activity [19]?
A: Toxic

Q: And the microsomal CLint at 1 µM [20]?
A: 97 µL/min/mg

Q: What about the Activity [21] of the same compound?
A: Non-Toxic

Q: What about the Activity (Granta-519 [22]) of the same compound?
A: Active

Q: What about the hepatocyte CLint at 1 µM [23] of the same compound?
A: 11 µL/min/1e6 cells

Q: What about the Activity (Granta-519 [24]) of the same compound?
A: Active

Q: What about the Activity [25] of the same compound?
A: Non-Toxic

Q: What about the IC50 (LoVo) of the same compound?
A: 28 nM

Q: What about the Activity [26] of the same compound?
A: Non-Toxic

Q: And the Activity [27]?
A: Non-Toxic

Q: What about the Activity [28] of the same compound?
A: Toxic

Q: What about the Activity [29] of the same compound?
A: Non-Toxic

Q: What about the inhibition [30] of the same compound?
A: Active

Q: And the Activity [31]?
A: Toxic

Q: And the bioavailability [32]?
A: 45%

Reference: ChEMBL document CHEMBL5505970 (J Med Chem, 2024)
